This note sets out measurements from ChEMBL document CHEMBL1145498, “A systematic interaction map of validated kinase inhibitors with Ser/Thr kinases” (Proc Natl Acad Sci U S A, 2007).

Assay [1] addresses T1, Serine/threonine-protein kinase PLK4 (Homo sapiens) (UniProt O00444).
T1 sequence (whole entry): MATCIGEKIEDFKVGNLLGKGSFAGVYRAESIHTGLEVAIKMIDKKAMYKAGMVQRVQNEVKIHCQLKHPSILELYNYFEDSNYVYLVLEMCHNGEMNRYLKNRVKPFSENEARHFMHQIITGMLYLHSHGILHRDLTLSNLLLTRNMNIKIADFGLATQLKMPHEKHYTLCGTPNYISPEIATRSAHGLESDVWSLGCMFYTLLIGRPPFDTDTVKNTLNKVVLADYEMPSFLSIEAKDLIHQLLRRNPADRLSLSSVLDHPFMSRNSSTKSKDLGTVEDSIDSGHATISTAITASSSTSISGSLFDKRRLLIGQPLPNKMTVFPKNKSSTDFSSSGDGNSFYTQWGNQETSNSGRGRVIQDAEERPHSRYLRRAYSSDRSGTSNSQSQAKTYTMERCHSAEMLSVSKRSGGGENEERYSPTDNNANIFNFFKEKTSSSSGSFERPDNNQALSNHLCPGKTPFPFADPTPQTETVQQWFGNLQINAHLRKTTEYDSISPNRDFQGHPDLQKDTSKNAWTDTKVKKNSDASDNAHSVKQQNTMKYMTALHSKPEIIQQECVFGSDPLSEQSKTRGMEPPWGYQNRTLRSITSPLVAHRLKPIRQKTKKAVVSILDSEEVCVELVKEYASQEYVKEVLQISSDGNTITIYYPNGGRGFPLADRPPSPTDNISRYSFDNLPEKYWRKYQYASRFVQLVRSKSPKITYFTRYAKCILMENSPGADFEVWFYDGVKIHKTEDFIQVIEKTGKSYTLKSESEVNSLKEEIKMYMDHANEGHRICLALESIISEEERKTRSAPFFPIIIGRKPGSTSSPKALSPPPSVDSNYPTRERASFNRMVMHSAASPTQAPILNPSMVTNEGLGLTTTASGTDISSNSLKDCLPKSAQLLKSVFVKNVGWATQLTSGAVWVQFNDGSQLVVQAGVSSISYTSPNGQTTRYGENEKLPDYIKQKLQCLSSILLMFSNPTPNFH

Assay [2] addresses Mitogen-activated protein kinase 6 (Homo sapiens) (UniProt Q16659).
Assay [3] has as its target Serine/threonine-protein kinase PAK 6 (Homo sapiens) (UniProt Q9NQU5).
Assay [4] concerns the target Cyclin-dependent kinase 2 (Homo sapiens, UniProt P24941).
In assay [5] the target is T2, Serine/threonine-protein kinase VRK3 (Homo sapiens) (UniProt Q8IV63).
T2 sequence (whole entry): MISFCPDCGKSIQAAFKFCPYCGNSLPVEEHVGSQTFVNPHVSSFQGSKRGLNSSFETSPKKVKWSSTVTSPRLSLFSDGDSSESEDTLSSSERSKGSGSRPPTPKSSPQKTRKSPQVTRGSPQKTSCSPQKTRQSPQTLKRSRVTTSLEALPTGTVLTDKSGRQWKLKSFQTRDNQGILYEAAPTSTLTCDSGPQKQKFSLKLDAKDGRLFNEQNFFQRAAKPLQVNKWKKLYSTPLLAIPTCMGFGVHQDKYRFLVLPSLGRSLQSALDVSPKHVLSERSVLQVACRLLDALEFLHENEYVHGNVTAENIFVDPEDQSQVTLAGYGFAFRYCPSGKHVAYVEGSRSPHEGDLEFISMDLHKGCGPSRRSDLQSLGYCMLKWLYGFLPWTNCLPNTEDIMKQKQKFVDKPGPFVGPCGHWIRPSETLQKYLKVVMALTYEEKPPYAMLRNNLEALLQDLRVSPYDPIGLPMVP

The target of assay [6] is Casein kinase I isoform gamma-2 (Homo sapiens) (UniProt P78368).
The target in assay [7] is Calcium/calmodulin-dependent protein kinase type II subunit alpha (Homo sapiens) (UniProt Q9UQM7).
Chain of Calcium/calmodulin-dependent protein kinase type II subunit alpha (Homo sapiens) (Q9UQM7 whole entry): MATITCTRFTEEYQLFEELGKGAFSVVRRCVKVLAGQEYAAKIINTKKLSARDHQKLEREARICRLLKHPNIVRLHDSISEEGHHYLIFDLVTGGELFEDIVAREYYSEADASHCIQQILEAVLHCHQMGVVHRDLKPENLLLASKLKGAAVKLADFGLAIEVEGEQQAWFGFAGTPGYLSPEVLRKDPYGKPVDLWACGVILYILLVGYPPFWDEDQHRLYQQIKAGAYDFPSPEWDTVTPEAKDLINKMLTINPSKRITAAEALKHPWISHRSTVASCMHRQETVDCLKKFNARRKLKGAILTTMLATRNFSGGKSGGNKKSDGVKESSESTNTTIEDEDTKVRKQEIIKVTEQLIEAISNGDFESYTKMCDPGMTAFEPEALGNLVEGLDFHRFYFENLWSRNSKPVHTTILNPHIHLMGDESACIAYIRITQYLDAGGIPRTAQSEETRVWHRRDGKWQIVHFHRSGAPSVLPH
Assay [8] deals with T3, Serine/threonine-protein kinase 17A (Homo sapiens) (UniProt Q9UEE5).
T3 sequence (whole entry): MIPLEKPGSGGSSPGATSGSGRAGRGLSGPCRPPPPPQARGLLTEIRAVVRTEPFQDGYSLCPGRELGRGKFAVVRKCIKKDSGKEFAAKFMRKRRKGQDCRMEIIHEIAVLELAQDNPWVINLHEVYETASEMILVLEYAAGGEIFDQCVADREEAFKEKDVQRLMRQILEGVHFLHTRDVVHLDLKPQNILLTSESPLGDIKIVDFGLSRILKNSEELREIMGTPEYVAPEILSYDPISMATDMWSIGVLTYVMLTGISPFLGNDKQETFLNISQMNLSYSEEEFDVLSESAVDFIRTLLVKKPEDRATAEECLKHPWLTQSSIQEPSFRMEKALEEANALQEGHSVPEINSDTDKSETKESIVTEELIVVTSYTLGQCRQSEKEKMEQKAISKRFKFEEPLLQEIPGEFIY

Assay [9] deals with Dual specificity protein kinase CLK3 (Homo sapiens) (UniProt P49761).
Chain of Dual specificity protein kinase CLK3 (Homo sapiens) (P49761 whole entry, looked up): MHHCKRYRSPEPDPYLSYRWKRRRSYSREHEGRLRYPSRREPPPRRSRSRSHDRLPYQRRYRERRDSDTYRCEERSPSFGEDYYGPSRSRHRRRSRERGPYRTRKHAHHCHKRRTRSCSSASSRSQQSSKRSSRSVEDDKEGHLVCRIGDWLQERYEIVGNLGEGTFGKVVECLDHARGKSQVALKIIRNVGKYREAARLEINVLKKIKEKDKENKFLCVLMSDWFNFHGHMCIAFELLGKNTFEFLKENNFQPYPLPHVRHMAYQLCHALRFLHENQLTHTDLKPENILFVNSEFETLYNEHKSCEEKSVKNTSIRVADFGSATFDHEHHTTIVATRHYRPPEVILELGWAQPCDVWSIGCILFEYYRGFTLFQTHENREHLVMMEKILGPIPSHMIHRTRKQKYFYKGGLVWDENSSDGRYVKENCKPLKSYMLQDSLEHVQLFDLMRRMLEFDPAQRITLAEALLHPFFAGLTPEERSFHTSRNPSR
In assay [10] the target is 5'-AMP-activated protein kinase catalytic subunit alpha-2 (Homo sapiens) (UniProt P54646).
Assay [11] deals with Serine/threonine-protein kinase 10 (Homo sapiens) (UniProt O94804).
Chain of Serine/threonine-protein kinase 10 (Homo sapiens) (O94804 whole entry, looked up): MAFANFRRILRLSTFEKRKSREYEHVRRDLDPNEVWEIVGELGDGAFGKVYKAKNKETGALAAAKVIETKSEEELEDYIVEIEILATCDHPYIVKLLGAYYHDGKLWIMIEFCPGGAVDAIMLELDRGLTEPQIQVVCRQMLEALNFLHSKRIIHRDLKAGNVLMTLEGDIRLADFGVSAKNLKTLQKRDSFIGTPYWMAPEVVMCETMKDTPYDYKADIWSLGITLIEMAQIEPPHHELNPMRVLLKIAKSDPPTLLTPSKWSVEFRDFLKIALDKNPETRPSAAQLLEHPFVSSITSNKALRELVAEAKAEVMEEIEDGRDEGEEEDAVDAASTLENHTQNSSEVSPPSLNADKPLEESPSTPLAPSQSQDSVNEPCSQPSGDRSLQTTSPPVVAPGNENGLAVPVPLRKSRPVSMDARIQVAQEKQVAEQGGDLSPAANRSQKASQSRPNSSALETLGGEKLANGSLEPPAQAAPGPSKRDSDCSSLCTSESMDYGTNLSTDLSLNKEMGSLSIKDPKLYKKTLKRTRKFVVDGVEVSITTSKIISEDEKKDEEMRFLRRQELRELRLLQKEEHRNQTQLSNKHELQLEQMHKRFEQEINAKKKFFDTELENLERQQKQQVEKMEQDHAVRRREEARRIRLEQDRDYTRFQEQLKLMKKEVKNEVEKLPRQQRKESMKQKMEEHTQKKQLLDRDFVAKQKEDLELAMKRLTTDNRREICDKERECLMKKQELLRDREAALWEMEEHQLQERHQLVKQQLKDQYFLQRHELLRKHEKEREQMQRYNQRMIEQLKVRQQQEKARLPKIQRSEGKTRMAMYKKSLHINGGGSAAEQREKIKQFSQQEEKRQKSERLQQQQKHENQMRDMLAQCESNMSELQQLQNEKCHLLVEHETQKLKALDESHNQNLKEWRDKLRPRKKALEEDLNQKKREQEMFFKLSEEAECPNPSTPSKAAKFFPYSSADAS
Assay [12] deals with Serine/threonine-protein kinase PLK1 (Homo sapiens) (UniProt P53350).
Chain of Serine/threonine-protein kinase PLK1 (Homo sapiens) (P53350 whole entry): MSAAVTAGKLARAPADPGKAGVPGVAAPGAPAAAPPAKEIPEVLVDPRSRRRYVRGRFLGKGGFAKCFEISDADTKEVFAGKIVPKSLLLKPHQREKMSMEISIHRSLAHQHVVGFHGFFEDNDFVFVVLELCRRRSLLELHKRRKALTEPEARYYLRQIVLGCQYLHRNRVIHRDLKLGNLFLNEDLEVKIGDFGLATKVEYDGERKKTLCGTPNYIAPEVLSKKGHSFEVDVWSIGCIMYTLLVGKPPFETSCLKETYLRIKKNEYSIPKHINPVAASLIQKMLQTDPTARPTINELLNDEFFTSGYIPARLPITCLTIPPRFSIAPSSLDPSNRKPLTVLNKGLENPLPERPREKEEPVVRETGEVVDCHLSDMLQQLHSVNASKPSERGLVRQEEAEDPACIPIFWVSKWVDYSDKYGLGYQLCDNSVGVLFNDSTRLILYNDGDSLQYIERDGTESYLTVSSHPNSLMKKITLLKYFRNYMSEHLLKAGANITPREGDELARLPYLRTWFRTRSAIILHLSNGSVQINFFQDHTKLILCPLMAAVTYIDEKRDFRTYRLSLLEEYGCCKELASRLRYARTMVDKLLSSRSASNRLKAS
The target in assay [13] is Serine/threonine-protein kinase pim-1 (Homo sapiens) (UniProt P11309).
Chain of Serine/threonine-protein kinase pim-1 (Homo sapiens) (P11309 whole entry, looked up): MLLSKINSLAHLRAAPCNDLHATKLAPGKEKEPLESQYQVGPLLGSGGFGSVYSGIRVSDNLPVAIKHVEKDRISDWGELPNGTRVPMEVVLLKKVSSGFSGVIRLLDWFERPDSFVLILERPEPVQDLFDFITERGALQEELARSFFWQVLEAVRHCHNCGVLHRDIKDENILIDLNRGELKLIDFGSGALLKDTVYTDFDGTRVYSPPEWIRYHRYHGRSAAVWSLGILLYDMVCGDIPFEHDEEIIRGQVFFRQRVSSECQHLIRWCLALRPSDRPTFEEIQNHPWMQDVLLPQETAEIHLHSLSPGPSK
Assay [14] has as its target Serine/threonine-protein kinase PAK 5 (Homo sapiens) (UniProt Q9P286).
Assay [15] deals with Serine/threonine-protein kinase pim-2 (Homo sapiens, UniProt Q9P1W9).
Assay [16] has as its target Tyrosine-protein kinase JAK1 (Homo sapiens) (UniProt P23458).
In assay [17] the target is Serine/threonine-protein kinase Chk2 (Homo sapiens, UniProt O96017).
The target in assay [18] is Casein kinase I isoform gamma-3 (Homo sapiens) (UniProt Q9Y6M4).
The target in assay [19] is Cyclin-dependent kinase-like 1 (Homo sapiens) (UniProt Q00532).
Chain of Cyclin-dependent kinase-like 1 (Homo sapiens) (Q00532 whole entry): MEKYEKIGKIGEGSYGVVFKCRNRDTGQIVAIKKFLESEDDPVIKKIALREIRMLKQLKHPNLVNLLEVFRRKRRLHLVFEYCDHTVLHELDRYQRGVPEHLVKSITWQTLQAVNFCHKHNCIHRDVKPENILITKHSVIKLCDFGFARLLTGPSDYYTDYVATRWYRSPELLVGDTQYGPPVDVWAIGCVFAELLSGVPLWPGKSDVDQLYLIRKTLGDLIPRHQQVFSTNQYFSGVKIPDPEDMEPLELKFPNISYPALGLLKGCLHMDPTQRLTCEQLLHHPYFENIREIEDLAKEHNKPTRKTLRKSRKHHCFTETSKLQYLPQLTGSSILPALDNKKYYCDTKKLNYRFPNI
The target in assay [20] is Serine/threonine-protein kinase 26 (Homo sapiens) (UniProt Q9P289).
Chain of Serine/threonine-protein kinase 26 (Homo sapiens) (Q9P289 2-416 limits assumed): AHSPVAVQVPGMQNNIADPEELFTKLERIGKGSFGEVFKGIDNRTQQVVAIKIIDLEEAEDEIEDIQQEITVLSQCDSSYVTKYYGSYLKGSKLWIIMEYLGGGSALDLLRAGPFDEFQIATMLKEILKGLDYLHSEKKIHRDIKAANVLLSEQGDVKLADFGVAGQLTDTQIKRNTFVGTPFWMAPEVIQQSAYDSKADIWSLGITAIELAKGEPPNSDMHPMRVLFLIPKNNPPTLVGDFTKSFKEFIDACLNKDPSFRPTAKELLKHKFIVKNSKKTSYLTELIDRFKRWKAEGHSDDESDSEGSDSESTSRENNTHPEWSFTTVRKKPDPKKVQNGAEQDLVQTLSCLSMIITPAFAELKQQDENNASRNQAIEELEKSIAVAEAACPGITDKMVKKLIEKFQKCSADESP

Chain of Serine/threonine-protein kinase PAK 6 (Homo sapiens) (Q9NQU5 whole entry, looked up): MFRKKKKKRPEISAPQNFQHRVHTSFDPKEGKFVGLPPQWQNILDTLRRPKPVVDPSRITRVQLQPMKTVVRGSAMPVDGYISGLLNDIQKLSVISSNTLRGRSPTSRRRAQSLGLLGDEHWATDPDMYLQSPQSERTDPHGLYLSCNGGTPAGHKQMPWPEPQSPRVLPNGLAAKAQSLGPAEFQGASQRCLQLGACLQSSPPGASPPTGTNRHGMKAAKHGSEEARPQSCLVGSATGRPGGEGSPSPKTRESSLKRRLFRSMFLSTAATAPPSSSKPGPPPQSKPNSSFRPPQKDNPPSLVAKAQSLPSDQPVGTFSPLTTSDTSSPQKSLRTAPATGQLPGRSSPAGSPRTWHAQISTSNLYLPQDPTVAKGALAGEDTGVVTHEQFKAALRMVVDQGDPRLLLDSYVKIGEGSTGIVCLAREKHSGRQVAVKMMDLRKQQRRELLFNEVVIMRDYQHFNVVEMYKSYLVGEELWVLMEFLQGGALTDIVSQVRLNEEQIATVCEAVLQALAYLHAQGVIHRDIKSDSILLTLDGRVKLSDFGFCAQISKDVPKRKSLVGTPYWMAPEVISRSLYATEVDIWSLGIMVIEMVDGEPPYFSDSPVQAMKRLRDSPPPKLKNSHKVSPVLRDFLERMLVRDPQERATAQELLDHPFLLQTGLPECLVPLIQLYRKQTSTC
Chain of Mitogen-activated protein kinase 6 (Homo sapiens) (Q16659 whole entry): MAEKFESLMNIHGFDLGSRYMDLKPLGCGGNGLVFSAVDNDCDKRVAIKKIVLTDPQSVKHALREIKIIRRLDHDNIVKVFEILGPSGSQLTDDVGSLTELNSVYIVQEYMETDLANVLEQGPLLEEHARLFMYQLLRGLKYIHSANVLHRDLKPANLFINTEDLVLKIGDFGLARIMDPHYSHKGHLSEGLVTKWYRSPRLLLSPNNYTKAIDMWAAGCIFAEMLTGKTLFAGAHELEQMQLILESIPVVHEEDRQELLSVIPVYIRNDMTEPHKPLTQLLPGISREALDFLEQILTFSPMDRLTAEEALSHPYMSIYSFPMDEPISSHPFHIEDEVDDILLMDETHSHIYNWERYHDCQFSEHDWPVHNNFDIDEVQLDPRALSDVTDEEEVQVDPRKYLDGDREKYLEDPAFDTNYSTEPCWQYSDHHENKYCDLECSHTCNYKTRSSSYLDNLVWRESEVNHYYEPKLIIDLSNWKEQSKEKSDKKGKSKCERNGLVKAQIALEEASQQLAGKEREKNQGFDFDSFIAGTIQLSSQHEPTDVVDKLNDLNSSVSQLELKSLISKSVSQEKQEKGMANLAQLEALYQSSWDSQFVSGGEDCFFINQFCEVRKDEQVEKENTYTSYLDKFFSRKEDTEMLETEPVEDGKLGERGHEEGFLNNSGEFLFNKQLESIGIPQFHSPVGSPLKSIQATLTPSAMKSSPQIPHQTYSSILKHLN

On to `C/C(O)=C(\C#N)C(=O)Nc1cc(Br)ccc1Br`, for which the ΔTm in [1] is 1.1 °C; in [2], 0.4 °C; in assay [3], -0.2 °C; in assay [4], 1 °C; in assay [5], -0.3 °C; in assay [6], 0.4 °C. The ΔTm amounted to 0.1 °C in assay [7]; 0.6 °C in [8]; 0.3 °C in [9]; 0.6 °C in assay [10]; 0.9 °C in [11]; 1.3 °C in assay [12]. The ΔTm in assay [13] worked out at 1.4 °C; in assay [14], 0.4 °C; in [15] it was 1.9 °C; in assay [16], 0.7 °C; in [17] it was 0.5 °C; in [18], 0.3 °C. Besides, the shift in melting temperature (ΔTm) is 0.8 °C in assay [19] and -0.1 °C in assay [20].

With `CCOC(=O)c1cnc2oc3ccc(O)cc3c2c1-c1ccccc1`, the shift in melting temperature (ΔTm) in assay [1] was 2.8 °C; in [2], 0.2 °C; in [3], 0.3 °C; in [4], 1 °C; in assay [5], -0.6 °C; in [6], 1.1 °C. Further, the ΔTm amounted to 0.7 °C in [7]; 2 °C in [8]; 1 °C in [9]; 0 °C in [10]; 2.9 °C in assay [11]; 0.8 °C in assay [12]. Moreover, the ΔTm stood at 5.1 °C in assay [13]; 0.5 °C in assay [14]; 6.3 °C in assay [15]; 8.6 °C in [16]; 0.8 °C in assay [17]; 1.1 °C in assay [18]. The ΔTm in [19] was -0.3 °C; in assay [20], 0 °C.

Turning to `C=CNC#N`, the thermal shift (ΔTm) in [1] is 0.1 °C; in assay [2] it was 1 °C; in assay [3], 0.5 °C; in assay [4], -0.2 °C; in assay [5], 0.9 °C; in assay [6] it was 0.1 °C. The ΔTm in [7] is 0.7 °C; in assay [8], 0.7 °C; in assay [9], 0.2 °C; in assay [10], -0.7 °C; in [11], -0.3 °C; in [12] it was 0.1 °C. For the same molecule, the thermal shift (ΔTm) in assay [13] was 0.1 °C; in assay [14], 0.5 °C; in [15], 0.3 °C; in [16], -0.9 °C; in [17], 0.1 °C; in [18], 0.8 °C. The figures for the ΔTm in assay [19] and in [20] were -0.1 °C and 1.5 °C, respectively.

Consider `COc1nccc(-c2c(-c3ccc(F)cc3)ncn2[C@H]2CC[C@H](O)CC2)n1`, for which the thermal shift (ΔTm) is 0.1 °C in [1]; 0.8 °C in assay [2]; -0.3 °C in [3]; -0.6 °C in assay [4]; -0.1 °C in assay [5]; 1 °C in assay [6]. In addition, the ΔTm in [7] was 1.5 °C; in [8] it was 0 °C; in assay [9], 0.1 °C; in assay [10], 0.7 °C; in assay [11], 1.9 °C; in assay [12], -0.2 °C. Besides, the ΔTm is -0.5 °C in assay [13]; 0.1 °C in assay [14]; 0.5 °C in assay [15]; 0.8 °C in assay [16]; 1.2 °C in assay [17]; 1.2 °C in [18]. In addition, the ΔTm in [19] is -1 °C; in assay [20], 2.8 °C.

With `CN(C)c1ncnc2nc[nH]c12` [DIMETHYLADENINE], the ΔTm is 1.3 °C in assay [1]; -0.1 °C in assay [2]; -0.3 °C in assay [3]; 0.3 °C in assay [4]; -1 °C in assay [5]; 0.5 °C in assay [6]. The ΔTm in assay [7] was 1.7 °C; in [8], 1.5 °C; in assay [9], 0.4 °C; in assay [10], -0.6 °C; in assay [11], -0.4 °C; in assay [12] it was 0.5 °C. For the same molecule, the ΔTm in [13] was found to be 0 °C; in assay [14], 0 °C; in [15], 0.3 °C; in assay [16], 0.9 °C; in [17] it was 0.5 °C; in assay [18], 0.5 °C. Further, the ΔTm in assay [19] and in [20] was 0 °C in each case.

Consider `CCOc1ccc(/C=C2/SC(=O)N(CCN)C2=O)cc1` [HIAZOLIDINEDIONE1], for which the ΔTm was 0.3 °C in assay [1]; 0.6 °C in assay [2]; -0.5 °C in assay [3]; -0.1 °C in assay [4]; -1.1 °C in assay [5]; 0.6 °C in [6]. Further, the shift in melting temperature (ΔTm) is -0.2 °C in [7]; -0.6 °C in assay [8]; 0.1 °C in [9]; 0.1 °C in [10]; 0.8 °C in assay [11]; 0.6 °C in assay [12]. The shift in melting temperature (ΔTm) in assay [13] was -0.4 °C; in assay [14], 0.1 °C; in assay [15] it was -0.1 °C; in assay [16], -0.1 °C; in assay [17] it was 0.7 °C; in assay [18], -0.1 °C. Further, the shift in melting temperature (ΔTm) in assay [19] was 0.3 °C; in assay [20], -0.1 °C.

For the molecule `CN(C)S(=O)(=O)c1ccc2c(c1)/C(=C/c1cc3c([nH]1)CCCC3)C(=O)N2`, the shift in melting temperature (ΔTm) in [1] was 12.8 °C; in assay [2], 0.6 °C; in assay [3], -4.4 °C; in [4], 2.3 °C; in [5] it was 1.5 °C; in [6] it was 0.1 °C. In addition, the shift in melting temperature (ΔTm) in [7] amounted to 3 °C; in [8], 3.3 °C; in assay [9] it was 4.1 °C; in assay [10], 6.7 °C; in assay [11], 7.7 °C; in assay [12] it was 0.1 °C. The thermal shift (ΔTm) came out at 0.5 °C in assay [13]; 0.4 °C in assay [14]; 0.4 °C in assay [15]; 3.6 °C in assay [16]; 4.7 °C in assay [17]; 0.6 °C in assay [18]. Further, the figures for the shift in melting temperature (ΔTm) in assay [19] and in assay [20] were 0 °C and 1 °C, respectively.

The ΔTm is the change in melting temperature against a reference sample.
